Legend:
[1] = biological target: T1, aFGF (Homo sapiens, UniProt P05230); assay: Thermal denaturation (Tm) of aFGF by circular dichroism; assay type: biochemical; conditions: for Tm of aFGF (maximum Tm induced by ligand), circular dichroism: PBS pH 7.2, excess ligand (1-3X by weight; 120 mM sodium sulfate, 10 mM tetrapolyphosphate); for Tm of aFGF, circular dichroism: 3X ligand by weight
T1 construct: The recombinant derived, 140 amino add form is the preferred form of aFGF; N-terminal methionine (MetHaFGF); made in house; host or cells: microbial cells (preferred embodiment)

[2] = biological target: T1, aFGF; assay: Copper-catalyzed oxidation of aFGF thiol groups; assay type: biochemical; conditions: for Cu Oxidation (% SH Lost in 10 Mins): ligand 3X by weight, sodium sulfate 120 mM, tetrapolyphosphate 10 mM
Procedure: Copper-catalyzed oxidation of aFGF is carried out in the following manner. Acidic FGF (about 80 μg/ml) is incubated in a 20 mM Tris, 0.15M potassium chloride, pH 8 solution containing about 20 μM cuptic chloride for varying periods of time at room temperature. The reaction was terminated by the addition of 100 mM EDTA in the same buffer. A solution of about 0.7 ml of 0.25M Tris (about pH 8) containing about 2 mM EDTA and about 7 M GuHC1 is then added followed by about 35 μl of 4 mg/ml of DTNB (Sigma). Samples were incubated for 30 minutes, filtered through a 0.22 micron filter and the optical density measured at about 412 nm to determine sulfhydryl content, Riddles et al., Meth. Enzymol. 9:49-60 (1983). Relative standard deviation of the obtained values during time course experiments is 12%.
Acidic FGF contains three free cysteine residues at positions […], 83 and 117 in the polypeptide chain. […] It has also been shown that the copper catalyzed oxidative formation of a disulfide bond in the wild-type aFGF inactivates the protein in an in vitro mitogenic assay, Ortega et al., J. Biol. Chem. 266:5842-5846 (1991). Therefore, it was of interest to determine the extent to which heparin can stabilize aFGF against inactivation by oxidation. […] Samples contained 80 μg/ml aFGF with (a) 3X heparin by weight, (b) 0.1X heparin by weight and (c) buffer alone. As heparin was introduced and its concentration increased, the rate of copper-catalyzed oxidation decreased. For example, after 20 minutes, greater than 95% of the cysteine residues of aFGF are protected from oxidation with 3X heparin. FIG. 4B illustrates the fraction of remaining reactive thiol groups after a 10-minute incubation with cupric chloride as a function of heparin concentration.
Some aggregation of aFGF occurs under the conditions of these experiments presumably due to at least partial intermolecular disulfide formation. Thus, these measurements could simply be a measurement of the loss of solubility induced by copper association with aFGF. Several experiments, however, argue against this possibility. First, previous work has shown that at dilute protein concentration, copper does indeed catalyze oxidation of thiol groups of aFGF, Ortega et al., J. Biol. Chem. 266:5842-5846 (199 1 ). Second, as a control experiment, the copper-catalyzed oxidation of aFGF was carded out in a buffer containing 6 M GuHCl. Under these denaturing conditions, nearly 100% of the thiol groups in solution were lost after 10 minutes without visible aggregation. […] Regardless of the precise mechanism, copper addition is a distinct mechanism of inactivation compared to thermal stress.
Similar protection against oxidation experiments were carried out with other negatively charged compounds with an excess of ligand (3X by weight except for sodium sulfate at 120 mM and tetrapolyphosphate at 10 mM) added to aFGF before copper catalyzed oxidation. As shown in the second column of Table 2, all of these agents at least partially protect the cysteine residues of aFGF from oxidation.
^(b) Percentage of aFGF thiols remaining in solution after 10 min
incubation with cupric chloride. Experimental conditions are described in
FIG. 10. All samples contained ligand at 3× (by weight) except
sodium sulfate (120 mM) and tetrapolyphosphate (10 mM).

T1 sequence (P05230 16-155 limits assumed): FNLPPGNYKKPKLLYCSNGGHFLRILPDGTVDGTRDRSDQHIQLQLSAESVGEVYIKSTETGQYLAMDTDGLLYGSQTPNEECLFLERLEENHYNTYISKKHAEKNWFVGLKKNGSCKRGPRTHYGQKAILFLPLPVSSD

| Compound | Tm of aFGF (maximum Tm induced by ligand), circular dichroism [1] | Cu Oxidation (% SH Lost in 10 Mins) [2] | Cu Oxidation (% SH Lost in 10 Mins) ([2]; listed as inositol hexaphosphate) | Tm of aFGF, circular dichroism [1] | cysteine residues of aFGF protected from oxidation ([2]; 3X heparin, 20 minutes) | stabilization against copper-catalyzed oxidation ([2]; 10-minute incubation, 1/3 weight level of heparin) |
| --- | --- | --- | --- | --- | --- | --- |
| O=P(O)(O)O[C@H]1[C@H](OP(=O)(O)O)[C@@H](OP(=O)(O)O)[C@H](OP(=O)(O)O)[C@@H](OP(=O)(O)O)[C@H]1OP(=O)(O)O [Inositol hexaphosphate, inositol hexaphosphate] | 70 °C | < 3% | less than 3% | – | – | – |
| O=S(=O)(O)OC1C(OS(=O)(=O)O)C(OS(=O)(=O)O)C(OS(=O)(=O)O)C(OS(=O)(=O)O)C1OS(=O)(=O)O (stereo not shown) [Inositol hexasulfate, inositol hexasulfate] | 66 °C | 22% | – | – | – | – |
| O=P(O)(O)OP(=O)(O)OP(=O)(O)OP(=O)(O)O [Tetrapolyphosphate] | 66 °C | < 3% | – | – | – | – |
| dextran sulfate | 62 °C | 7% | – | – | – | – |
| heparin [reference compound] | 64 °C | < 3% | – | 64 °C | greater than 95% | stabilization essentially complete at 1/3 weight levels of heparin |
| low molecular weight heparin [Low MW heparin, reference compound] | 66 °C | < 3% | – | – | – | – |
| sulfated β-cyclodextrin | 65 °C | < 3% | – | 65 °C | – | – |
